Experimental data from the supplement of paper PMC10307832.

What was measured:
Test in all cases: relative viability (nuclei count vs DMSO), 5 days (fraction); higher = more cells survive
XMD8-85 + Pemetrexed = compound: CN1CCN(CC1)C2=CC(=C(C=C2)NC3=NC=C4C(=N3)N(C5=CC=CC=C5C(=O)N4C)C)OC [XMD8-85] + Nc1nc2[nH]cc(CCc3ccc(C(=O)N[C@@H](CCC(=O)O)C(=O)O)cc3)c2c(=O)[nH]1 [Pemetrexed] (partner 0.2 µM)
In short: (§1)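 Values are medians from duplicate plates. Each reflects relative viability, defined as the nuclei count of treated wells over that of vehicle wells. Lung cancer cell lines in 1536-well plates were pin-tool dosed one day after seeding with one drug alone or with a fixed anchor-drug dose plus five library-drug doses (not always all listed) in √10 steps, then fixed, stained and imaged at 4× after 5 days.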

XMD8-85 + Olaparib = compound: CN1CCN(CC1)C2=CC(=C(C=C2)NC3=NC=C4C(=N3)N(C5=CC=CC=C5C(=O)N4C)C)OC [XMD8-85] + O=C(c1cc(Cc2n[nH]c(=O)c3ccccc23)ccc1F)N1CCN(C(=O)C2CC2)CC1 [Olaparib] (partner 8 µM)
In short: as §1

4EGI-1 + Pictilisib = compound: O=C(O)C(Cc1ccccc1[N+](=O)[O-])=NNc1nc(-c2ccc(Cl)c(Cl)c2)cs1 (mixture of isomers) [4EGI-1] + CS(=O)(=O)N1CCN(Cc2cc3nc(-c4cccc5[nH]ncc45)nc(N4CCOCC4)c3s2)CC1 [Pictilisib] (partner 1 µM)
In short: as §1

4EGI-1 + Vorinostat = compound: O=C(O)C(Cc1ccccc1[N+](=O)[O-])=NNc1nc(-c2ccc(Cl)c(Cl)c2)cs1 (mixture of isomers) [4EGI-1] + O=C(CCCCCCC(=O)Nc1ccccc1)NO [Vorinostat] (partner 1 µM)
In short: as §1

| Cell Line | relative viability (XMD8-85 + Pemetrexed; first compound 0.08 µM) | relative viability (XMD8-85 + Pemetrexed; first compound 0.253 µM) | relative viability (XMD8-85 + Pemetrexed; first compound 0.8 µM) | relative viability (XMD8-85 + Pemetrexed; first compound 2.53 µM) | relative viability (XMD8-85 + Pemetrexed; first compound 8 µM) | relative viability (XMD8-85 + Olaparib; first compound 0.08 µM) | relative viability (XMD8-85 + Olaparib; first compound 0.253 µM) | relative viability (XMD8-85 + Olaparib; first compound 0.8 µM) | relative viability (XMD8-85 + Olaparib; first compound 2.53 µM) | relative viability (XMD8-85 + Olaparib; first compound 8 µM) | relative viability (4EGI-1 + Pictilisib; first compound 0.5 µM) | relative viability (4EGI-1 + Pictilisib; first compound 1.581 µM) | relative viability (4EGI-1 + Pictilisib; first compound 5 µM) | relative viability (4EGI-1 + Pictilisib; first compound 15.81 µM) | relative viability (4EGI-1 + Pictilisib; first compound 50 µM) | relative viability (4EGI-1 + Vorinostat; first compound 0.5 µM) | relative viability (4EGI-1 + Vorinostat; first compound 1.581 µM) | relative viability (4EGI-1 + Vorinostat; first compound 5 µM) | relative viability (4EGI-1 + Vorinostat; first compound 15.81 µM) | relative viability (4EGI-1 + Vorinostat; first compound 50 µM) |
| --- | --- | --- | --- | --- | --- | --- | --- | --- | --- | --- | --- | --- | --- | --- | --- | --- | --- | --- | --- | --- |
| NCI-H661 | 0.944 | 0.946 | 0.93 | 1.01 | 0.782 | 0.798 | 0.795 | 0.768 | 0.854 | 0.525 | 0.368 | 0.344 | 0.391 | 0.336 | 0.231 | 0.856 | 0.702 | 0.789 | 0.681 | 0.353 |
| CAL-12T | 0.956 | 1.15 | – | 0.862 | 0.681 | 0.704 | 0.721 | 0.776 | 0.628 | 0.583 | – | – | 0.431 | 0.347 | 0.225 | 0.964 | – | 0.95 | 0.759 | 0.67 |
| A-427 | 1.09 | 1.02 | 1.08 | 1.1 | 0.754 | 0.751 | 0.781 | 0.864 | 0.785 | 0.57 | 0.855 | 0.409 | 0.705 | 0.589 | 0.364 | 0.865 | – | 0.882 | 0.646 | 0.2 |
| LCLC-97TM1 | 0.153 | 0.17 | 0.211 | 0.181 | 0.189 | 0.433 | 0.285 | 0.359 | 0.477 | 0.201 | 0.174 | – | 0.175 | 0.199 | 0.105 | 0.78 | – | 0.856 | 0.843 | 0.0947 |
| LK-2 | 0.322 | 0.289 | 0.282 | 0.212 | 0.173 | 0.802 | 0.815 | 0.555 | 0.669 | 0.448 | 0.621 | – | 0.696 | 0.64 | 0.541 | 0.314 | 0.174 | 0.337 | 0.354 | 0.236 |
| SK-MES-1 | 0.857 | 1.08 | 1 | 0.9 | 0.44 | 0.819 | 0.683 | – | 0.707 | 0.408 | 0.458 | 0.349 | 0.338 | 0.303 | 0.347 | 1.09 | 0.938 | 1.1 | 0.728 | 0.228 |
| LU99A | 0.162 | 0.179 | 0.183 | 0.199 | 0.165 | 0.247 | 0.154 | 0.238 | 0.242 | 0.218 | 0.375 | – | 0.346 | 0.326 | 0.247 | 0.514 | 0.421 | 0.44 | 0.528 | 0.261 |
| NCI-H1993 | 0.604 | 0.572 | 0.681 | 0.739 | 0.563 | – | 0.942 | 1 | 1.07 | 0.792 | 0.919 | 0.761 | 0.781 | 0.736 | 0.862 | 1.04 | 0.678 | 0.778 | 0.524 | 0.349 |
| NCI-H441 | 0.263 | 0.261 | 0.247 | 0.279 | 0.256 | 0.405 | 0.553 | 0.421 | 0.538 | 0.371 | 0.517 | 0.414 | 0.455 | 0.447 | 0.19 | 0.727 | 0.909 | 0.75 | 0.641 | 0.414 |
| NCI-H1666 | 0.862 | 0.811 | 0.83 | 0.82 | 0.673 | 0.697 | 0.716 | 0.742 | 0.773 | – | 0.38 | 0.343 | 0.524 | 0.376 | 0.266 | 0.997 | 1.12 | 0.949 | 0.992 | 0.604 |
| NCI-H2023 | 0.189 | 0.223 | 0.326 | 0.255 | 0.165 | 0.42 | 0.452 | 0.508 | 0.487 | 0.285 | 0.275 | – | 0.207 | 0.177 | 0.0916 | 0.91 | – | 0.722 | 0.138 | 0.0836 |
| NCI-H322M | 0.579 | 0.596 | 0.606 | 0.59 | 0.48 | 0.912 | 0.795 | 0.899 | 0.71 | 0.647 | 0.56 | 0.467 | 0.527 | 0.443 | 0.5 | 0.998 | – | 1.05 | 0.8 | 0.482 |
| NCI-H838 | 0.243 | 0.247 | 0.249 | 0.208 | 0.184 | 0.796 | 0.749 | 0.898 | 0.778 | 0.279 | 0.527 | – | 0.435 | 0.362 | 0.173 | 0.724 | 0.732 | 0.738 | 0.605 | 0.263 |
| ChaGo-K-1 | 0.276 | 0.268 | 0.26 | 0.248 | 0.232 | 0.409 | 0.43 | 0.409 | 0.433 | 0.347 | 0.612 | – | 0.759 | 0.453 | 0.219 | 0.779 | 0.61 | 0.796 | 0.781 | 0.347 |
